Four molecules from patent US8030453B2, “Methods of making an antibody that binds a chemerin polypeptide” (Euroscreen S.A., priority 2001, dated 2011) can be followed below.

Like-named read-outs stand apart in the source and are kept apart here.

In data set [1] the test system is human chemerinR in CHO-K1 cells. As to the kind of experiment: intracellular cascade assays (calcium release, cAMP accumulation, p42/p44 MAP kinase phosphorylation) in CHO/chemerinR cells. The format is cell-based. In general terms: Changes in cAMP serve as a functional read-out for many G protein-coupled receptors.
Data set [2] concerns human monocyte-derived dendritic cells and macrophages. The data set is described as follows: chemotaxis (48-well microchemotaxis chamber) of primary cells. It counts as cell-based. As to the method:
(§1) Monocyte-derived DCs were generated by GM-CSF (50 ng/ml) and IL-13 (20 ng/ml) stimulation as previously described (17). Maturation of DCs was achieved following stimulation with 100 ng/ml LPS. Macrophages were obtained by incubating monocytes in Petriperm dishes (Haereus) for 6 days in RPMI supplemented with 10% FCS and 10 ng/ml MCSF. Cell migration was evaluated using a 48-well microchemotaxis chamber technique as described (18). For Ca2+ mobilization assays, monocyte-derived DCs or macrophages (10^7 cells/ml in HBSS without phenol red but containing 0.1% BSA) were loaded with 5 μM FURA-2 (Molecular Probes) for 30 min at 37° C. in the dark. The loaded cells were washed twice, resuspended at 10^6 cells/ml, kept for 30 min at 4° C. in the dark with or without the blocking 4C7 monoclonal antibody (10 μg/ml), and transferred into the quartz cuvette of a luminescence spectrometer LS50B (PerkinElmer).

Data set [3] deals with monocyte-derived immature dendritic cells and macrophages. As to the kind of experiment: Ca2+ mobilization (FURA-2) in primary cells. The format is cell-based, human. Conditions: similar for macrophages, Chemerin 30 nM. As to the method:
as §1
In general terms: A change in cytosolic calcium serves as a functional read-out for many receptors and channels.

For data set [4], the system named is C5a and C3a receptors, CRTH2, GPR1, other characterized and orphan receptors, most chemokine receptors. The data set is described as follows: reactivity of related and other receptors to Chemerin. The following applies: purified human Chemerin. It counts as cell-based.
In data set [5] the test system is wild-type CHO-K1 cells. The data set is described as follows: signalling assays on wild-type CHO-K1 cells. The format is cell-based, hamster.
The conditions of data set [6]: 100 nM; culture medium or conditioned media of CHO-K1, Cos-7 or HEK293 cells.
Method: In order to investigate whether proteolytic activation of prochemerin is performed intracellularly in the secretory pathway, or is an extracellular process, potentially regulated by the activation of extracellular proteases, we tested the activation of human purified prochemerin in the medium of cultured cells and conditioned media.
The target of data set [7] is T1, human ChemerinR (ChemR23) expressed in CHO-K1 cells (Homo sapiens, UniProt Q99788).
T1 construct: This fragment was subcloned into the pcDNA3 (Invitrogen) vector; expressed in transfected cells; host or cells: CHO-K1 (co-expressing mitochondrial apoaequorin and Galpha16)
T1 sequence (Q99788 3-373): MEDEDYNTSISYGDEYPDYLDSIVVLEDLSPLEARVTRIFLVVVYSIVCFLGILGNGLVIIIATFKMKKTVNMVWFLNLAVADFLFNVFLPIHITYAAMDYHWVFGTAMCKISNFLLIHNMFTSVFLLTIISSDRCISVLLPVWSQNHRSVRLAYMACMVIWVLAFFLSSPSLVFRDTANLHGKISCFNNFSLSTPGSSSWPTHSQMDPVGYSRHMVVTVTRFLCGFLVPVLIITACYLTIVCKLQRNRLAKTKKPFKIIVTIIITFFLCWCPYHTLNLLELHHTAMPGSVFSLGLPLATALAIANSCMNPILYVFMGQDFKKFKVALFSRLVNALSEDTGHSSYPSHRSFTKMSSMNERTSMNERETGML
The data set is described as follows: aequorin-based intracellular Ca2+ release assay. It counts as cell-based. As to the method:
Briefly, ChemerinR-expressing clones are transfected to coexpress mitochondrial apoaequorin and Gα16. Cells are incubated with 5 μM Coelenterazine H (Molecular Probes) for 4 hours at room temperature, washed in DMEM-F12 culture medium and resuspended at a concentration of 0.5×10^6 cells/ml. Cells are then mixed with test agonist peptides and light emission by the aequorin is recorded with a luminometer for 30 sec. Results are expressed as Relative Light Units (RLU). Controls include assays using membranes isolated from cells not expressing ChemerinR (mock-transfected), in order to exclude possible non-specific effects of the candidate compound.
ChemerinR-expres sing clones have been obtained by transfection of CHO-K1 cells to coexpressing mitochondrial apoaequorin and Gα16, limiting dilution and selection by northern blotting. Positive clones were used for screening with human ovarian cancer ascites extracts prepared as described above. […] Briefly, cells were collected from plates in PBS containing 5 mM EDTA, pelleted and resuspended at 5×10^6 cells/ml in DMEM-F12 medium. Cells were incubated with 5 μM Coelenterazine H (Molecular Probes) for 4 hours at room temperature. Cells were then washed in DMEM-F12 medium and resuspended at a concentration of 0.5×10^6 cells/ml. Cells were then mixed with test agonist peptides or plates containing tissue extracts and the light emission was recorded for 30 sec using a Microlumat luminometer (Perkin Elmer). Results are expressed as Relative Light Units (RLU).

Data set [8] concerns B16F0 melanoma cell line. As to the kind of experiment: in vitro proliferation of transfected B16F0 cells (BrdU, cell cycle, cell counting). It counts as cell-based, mouse. The following applies: expression of Chemerin in B16F0 cells. As to the method:
(§2) B16-F0 melanoma cells (ATCC) were transfected with the pEFIN3-mouse chemerin plasmid using FuGene6, and selected with 800 μg/ml G418. Clones were characterized by assaying the conditioned medium on chemerinRexpres sing cells. In vitro proliferation rate was determined by BrdU incorporation as described30. For in vivo studies, cells were washed twice with PBS, and grafted (6×10^5 cells in 0.1 ml PBS) subcutaneously into the back of 10-week-old C57B16 mice (5 to 11 mice per group, Harlan, The Netherlands). Perpendicular tumor diameters (D and d) were measured every 2 days, and the volume was estimated as V=π(d/2)(D/2)(d/2). Statistical analysis was performed by using the unpaired non parametric Mann-Whitney test. For microscopic analysis, tumors were embedded in OCT, snap-frozen in −80° C. isopentane and cut at 12 μm. Sections were stained with hematoxylin-eosin (HE) for routine analysis. All animal procedures were approved by the ethical committee of the Medical School of the Universite Libre de Bruxelles.

Data set [9] relates to B16-F0 melanoma cells. As to the kind of experiment: B16-F0 melanoma model, subcutaneous graft in C57Bl6 mice. The format is in vivo, mouse. As to the method:
as §2

Turning to Pertussis toxin [reference compound], the “effect on Chemerin signalling effects” value in [1] (pretreatment) is recorded as “inhibited”. Also, the “effect on Chemerin-induced migration” value in data set [2] (macrophages and dendritic cells, Pertussis toxin 3 μg/ml, 4C7 10 μg/ml) is reported as “completely abolished”.
As for “recombinant Chemerin: human recombinant Chemerin expressed in CHO-K1 cells, C-terminally truncated after serine 157 (137 amino acids)”, in [1], the “concentrations causing intracellular calcium release, inhibition of cAMP accumulation, phosphorylation of p42 and p44 MAP kinases” value is given as “low nanomolar concentrations”. In [2] (immature dendritic cells), the “concentration of maximal chemotactic activity” value was 1 nM. Besides, the in vitro migration entry in data set [2] (macrophages and immature dendritic cells) is “promoted in vitro migration”. Also, in data set [2] (mature dendritic cells), the chemotaxis entry is “no chemotaxis”. In data set [3], the “intracellular Ca2+ levels” value is listed as “increased”. For the same molecule, the “reactivity of other receptors” value in [4] is “totally unreactive”. Besides, the “activity on wild-type CHO-K1 cells” value in [5] is reported as “No activity”.

B1: prochemerin: unprocessed form of the protein retaining the six C-terminal aminoacids (143 amino acids) (protein, listed as Homo sapiens)
chain: ELTEAQRRGLQVALEEFHKHPPVQWAFQETSVESAVDTPFPAGIFVRLEFKLQQTSCRKRDWKKPECKVRPNGRKRKCLACIKLGSEDKVLGRLVHCPIETQVLREAEEHQETQCLRVQRAGEDPHSFYFPGQFAFSKALPRS
With B1, in data set [5], the “activity on wild-type CHO-K1 cells” value is given as “No activity”. For the same molecule, in data set [6], the “conversion into a form active on ChemerinR” value is given as “fully converted”. Moreover, the EC50 in data set [7] (CHO cells expressing ChemerinR, aequorin assay, read-out: EC50 for activation of ChemerinR) is 393 ± 116 nM; in [7] (truncated Chemerin peptides, values in nM, read-out: Mean EC50) it was 393 ± 116 nM.

B2: mouse Chemerin: mouse Chemerin expressed by B16F0 melanoma cells transfected with a bicistronic expression vector containing the mouse Chemerin cDNA (protein)
chain: EPELSETQRRSLQVALEEFHKHPPVQLAFQEIGVDRAEEVLFSAGTFVRLEFKLQQTNCPKKDWKKPECTIKPNGRRRKCLACIKMDPKGKILGRIVHCPILKQGPQDPQELQCIKIAQAGEDPHGYFLPGQFAFSRALRTK
As to B2, in data set [8], the “growth rate of the cell lines” value was “did not modify the growth rate”. In addition, the “average reduction of size of developing tumors” value in data set [9] (21-24 days after the graft of Chemerin-expressing cells vs control) is reported as 70%. The “mice that did not develop tumors” value in [9] (three series combined, up to four weeks after graft, 0/24 in control group, p<0.05) was 5 out of 24.

What is called EC50 is the concentration that produces a half-maximal response.
